These molecules were tested against SAE (Homo sapiens (Human), UniProt Q9UBT2) (assay: In vitro inhibitory activity assay against SAE (SUMO-2/3 immunofluorescence in HCT116 cells)). Conditions: 6 h incubation, class symbols, read-out: SUMO IF IC50.
Type: cell-based
In short: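 HCT116 cells treated with compounds for 6 h at 37 °C, then fixed, permeabilized and immunostained for SUMO-2/3 with FITC secondary detection. Fluorescence compared with DMSO control to give inhibition rate and IC50.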

Sequence of SAE (Q9UBT2 whole entry): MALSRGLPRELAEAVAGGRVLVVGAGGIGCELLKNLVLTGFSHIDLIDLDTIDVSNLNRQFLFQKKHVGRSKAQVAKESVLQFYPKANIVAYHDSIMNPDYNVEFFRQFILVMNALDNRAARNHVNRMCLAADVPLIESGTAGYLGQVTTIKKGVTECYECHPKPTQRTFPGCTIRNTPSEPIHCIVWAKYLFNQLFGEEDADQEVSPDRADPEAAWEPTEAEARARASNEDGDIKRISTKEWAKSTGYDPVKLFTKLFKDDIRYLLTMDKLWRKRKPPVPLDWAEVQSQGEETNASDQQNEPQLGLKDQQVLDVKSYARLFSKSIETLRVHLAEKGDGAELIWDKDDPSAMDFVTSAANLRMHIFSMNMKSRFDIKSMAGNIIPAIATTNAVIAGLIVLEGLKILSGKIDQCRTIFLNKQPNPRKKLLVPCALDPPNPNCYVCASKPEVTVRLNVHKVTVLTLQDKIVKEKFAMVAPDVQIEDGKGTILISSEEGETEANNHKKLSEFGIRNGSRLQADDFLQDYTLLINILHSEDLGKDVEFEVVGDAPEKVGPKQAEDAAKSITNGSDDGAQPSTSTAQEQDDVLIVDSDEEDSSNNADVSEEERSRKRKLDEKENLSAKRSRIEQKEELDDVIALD
Sequence of SAE (Q9UBE0 whole entry partner): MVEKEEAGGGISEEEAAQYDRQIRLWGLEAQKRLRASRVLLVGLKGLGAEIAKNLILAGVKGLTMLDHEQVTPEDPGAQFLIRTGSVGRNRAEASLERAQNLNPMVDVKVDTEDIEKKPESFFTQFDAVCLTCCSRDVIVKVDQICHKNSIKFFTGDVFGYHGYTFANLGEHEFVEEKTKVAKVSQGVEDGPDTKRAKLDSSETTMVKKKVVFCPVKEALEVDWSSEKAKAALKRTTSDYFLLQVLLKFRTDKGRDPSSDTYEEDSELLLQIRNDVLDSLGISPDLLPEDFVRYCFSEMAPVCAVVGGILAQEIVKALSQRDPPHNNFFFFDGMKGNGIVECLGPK

First: CN1Cc2sc(C(=O)c3cncnc3N[C@@H]3C[C@H](COS(N)(=O)=O)[C@@H](O)C3)cc2[C@@]2(C1)OCCc1ccc(F)cc12 [Compound 257]
Second: CC(C)N1Cc2sc(C(=O)c3cncnc3N[C@@H]3C[C@H](COS(N)(=O)=O)[C@@H](O)C3)cc2C2(C1)OCCc1ccc(F)cc12 (stereo partly drawn) [Compound 268]
The IC50 of the first is higher: > 0.2 µM for the first, 0.05 to 0.2 µM for the second. The second is the more potent here.

`NS(=O)(=O)OC[C@H]1C[C@@H](Nc2ncncc2C(=O)c2cc3c(s2)CCCC32NCCc3cc(F)c(F)cc32)C[C@@H]1O` (stereo partly drawn) [Compound 26] and `NS(=O)(=O)OC[C@H]1C[C@@H](Nc2ncncc2C(=O)c2cc3c(s2)CCC32NCCc3cc(F)c(Cl)cc32)C[C@@H]1O` (stereo partly drawn) [Compound 69] cannot be ordered by IC50: 0.05 to 0.2 µM for the first, ≤ 0.05 µM for the second.

First: NS(=O)(=O)OC[C@H]1C[C@@H](Nc2ncncc2C(=O)c2cc3c(s2)CCC32OCCc3ccc(F)cc32)C[C@@H]1O (stereo partly drawn) [Compound 283]
Second: N#Cc1ccc2c(c1)[C@]1(CCc3sc(C(=O)c4cncnc4N[C@@H]4C[C@H](COS(N)(=O)=O)[C@@H](O)C4)cc31)OCC2 [Compound 287]
The IC50 of the first is lower: 0.05 to 0.2 µM for the first, > 0.2 µM for the second.

Going from `NS(=O)(=O)OC[C@H]1C[C@@H](Nc2ncncc2C(=O)c2cc3c(s2)CN(C2CC2)C[C@]32OCCc3ccc(Cl)cc32)C[C@@H]1O` [Compound 279] to `NS(=O)(=O)OC[C@H]1C[C@@H](Nc2ncncc2C(=O)c2cc3c(s2)CN(C2CC2)C[C@@]32OCCc3ccc(Cl)cc32)C[C@@H]1O` [Compound 278], the IC50 rises from ≤ 0.05 µM to > 0.2 µM. The first is the more potent here.

`NS(=O)(=O)OC[C@H]1C[C@@H](Nc2ncncc2C(=O)c2cc3c(s2)CCC[C@]32NCCc3ccc(Cl)nc32)C[C@@H]1O` [Compound 138] and `NS(=O)(=O)OC[C@H]1C[C@@H](Nc2ncncc2C(=O)c2cc3c(s2)CCCC32NCCc3ccc(F)cc32)C[C@@H]1O` (stereo partly drawn) [Compound 7] cannot be ordered by IC50: ≤ 0.05 µM for the first, 0.05 to 0.2 µM for the second.

`NS(=O)(=O)OC[C@H]1C[C@@H](Nc2ncncc2C(=O)c2cc3c(s2)COC[C@@]32NCCc3ccc(Cl)c(F)c32)C[C@@H]1O` [Compound 104] and `NS(=O)(=O)OC[C@H]1C[C@@H](Nc2ncncc2C(=O)c2cc3c(s2)COC[C@@]32NCCc3cc(Cl)c(Cl)cc32)C[C@@H]1O` [Compound 98] cannot be ordered by IC50: > 0.2 µM for the first, > 0.2 µM for the second.

`NS(=O)(=O)OC[C@H]1C[C@@H](Nc2ncncc2C(=O)c2cc3c(s2)C(=O)CC32NCCc3ccc(Cl)cc32)C[C@@H]1O` (stereo partly drawn) [Compound 166] and `NS(=O)(=O)OC[C@H]1C[C@@H](Nc2ncncc2C(=O)c2cc3c(s2)CSCC32NCCc3ccc(Cl)cc32)C[C@@H]1O` (stereo partly drawn) [Compound 91] cannot be ordered by IC50: 0.05 to 0.2 µM for the first, ≤ 0.05 µM for the second.

Going from `CCN1Cc2sc(C(=O)c3cncnc3N[C@@H]3C[C@H](COS(N)(=O)=O)[C@@H](O)C3)cc2[C@]2(C1)OCCc1ccc(Cl)cc12` [Compound 267] to `CCN1Cc2sc(C(=O)c3cncnc3N[C@@H]3C[C@H](COS(N)(=O)=O)[C@@H](O)C3)cc2[C@@]2(C1)OCCc1ccc(F)cc12` [Compound 263], the IC50 rises from ≤ 0.05 µM to > 0.2 µM.

`CN1Cc2sc(C(=O)c3cncnc3N[C@@H]3C[C@H](COS(N)(=O)=O)[C@@H](O)C3)cc2[C@@]2(C1)OCCc1ccccc12` [Compound 254] and `NS(=O)(=O)OC[C@H]1C[C@@H](Nc2ncncc2C(=O)c2cc3c(s2)CC[C@@]32OCCc3ccccc32)C[C@@H]1O` [Compound 281] cannot be ordered by IC50: > 0.2 µM for the first, > 0.2 µM for the second.

Compared with `NS(=O)(=O)OC[C@H]1C[C@@H](Nc2ncncc2C(=O)c2cc3c(s2)CN(C2CC2)C[C@@]32OCCc3ccc(F)cc32)C[C@@H]1O` [Compound 275], `NS(=O)(=O)OC[C@H]1C[C@@H](Nc2ncncc2C(=O)c2cc3c(s2)CN(C2CC2)C[C@]32OCCc3ccc(F)cc32)C[C@@H]1O` [Compound 276] is lower in IC50: > 0.2 µM for the first, ≤ 0.05 µM for the second.

`NS(=O)(=O)OC[C@H]1C[C@@H](Nc2ncncc2C(=O)c2cc3c(s2)C=CC32OCCc3ccccc32)C[C@@H]1O` (stereo partly drawn) [Compound 289] and `NS(=O)(=O)OC[C@H]1C[C@@H](Nc2ncncc2C(=O)c2cc3c(s2)C=CC32OCCc3ccc(Cl)cc32)C[C@@H]1O` (stereo partly drawn) [Compound 295] cannot be ordered by IC50: 0.05 to 0.2 µM for the first, ≤ 0.05 µM for the second.

`Cc1cc2c(cc1Cl)C1(CCCc3sc(C(=O)c4cncnc4N[C@@H]4C[C@H](COS(N)(=O)=O)[C@@H](O)C4)cc31)NCC2` (stereo partly drawn) [Compound 29] and `N#Cc1cc2c(cc1Cl)C1(CCc3sc(C(=O)c4cncnc4N[C@@H]4C[C@H](COS(N)(=O)=O)[C@@H](O)C4)cc31)NCC2` (stereo partly drawn) [Compound 72] fall in the same range of IC50: 0.05 to 0.2 µM for the first, 0.05 to 0.2 µM for the second.

`NS(=O)(=O)OC[C@H]1C[C@@H](Nc2ncncc2C(=O)c2cc3c(s2)COCC32NCCc3c(Cl)cc(Cl)cc32)C[C@@H]1O` (stereo partly drawn) [Compound 100] and `NS(=O)(=O)OC[C@H]1C[C@@H](Nc2ncncc2C(=O)c2cc3c(s2)COC[C@]32NCCc3c(Cl)cc(Cl)cc32)C[C@@H]1O` [Compound 102] fall in the same range of IC50: 0.05 to 0.2 µM for the first, 0.05 to 0.2 µM for the second.

`NS(=O)(=O)OC[C@H]1C[C@@H](Nc2ncncc2C(=O)c2cc3c(s2)CCC[C@]32NCC3(CC3)c3ccc(Cl)cc32)C[C@@H]1O` [Compound 219] and `[2H]C1([2H])Cc2ccc(Cl)cc2C2(CCCc3sc(C(=O)c4cncnc4N[C@@H]4C[C@H](COS(N)(=O)=O)[C@@H](O)C4)cc32)N1` (stereo partly drawn) [Compound 196] cannot be ordered by IC50: ≤ 0.05 µM for the first, 0.05 to 0.2 µM for the second.

`NS(=O)(=O)OC[C@H]1C[C@@H](Nc2ncncc2C(=O)c2cc3c(s2)OCC32NCCc3ccccc32)C[C@@H]1O` (stereo partly drawn) [Compound 55] and `NS(=O)(=O)OC[C@H]1C[C@@H](Nc2ncncc2C(=O)c2cc3c(s2)COC[C@@]32NCCc3ccccc32)C[C@@H]1O` [Compound 14] cannot be ordered by IC50: > 0.2 µM for the first, > 0.2 µM for the second.

`NS(=O)(=O)OC[C@H]1C[C@@H](Nc2ncncc2C(=O)c2cc3c(s2)C(F)(F)CC32NCCc3ccc(Cl)cc32)C[C@@H]1O` (stereo partly drawn) [Compound 160] and `NS(=O)(=O)OC[C@H]1C[C@@H](Nc2ncncc2C(=O)c2cc3c(s2)C=CC[C@]32NCCc3ccc(Cl)cc32)C[C@@H]1O` [Compound 216] cannot be ordered by IC50: 0.05 to 0.2 µM for the first, ≤ 0.05 µM for the second.

Going from `CC(C)N1Cc2sc(C(=O)c3cncnc3N[C@@H]3C[C@H](COS(N)(=O)=O)[C@@H](O)C3)cc2[C@@]2(C1)OCCc1ccc(Cl)cc12` [Compound 272] to `CN1Cc2sc(C(=O)c3cncnc3N[C@@H]3C[C@H](COS(N)(=O)=O)[C@@H](O)C3)cc2C2(C1)NCCc1ccc(Cl)cc12` (stereo partly drawn) [Compound 112], the IC50 falls from > 0.2 µM to ≤ 0.05 µM.

First: NS(=O)(=O)OC[C@H]1C[C@@H](Nc2ncncc2C(=O)c2cc3c(s2)OCC32NCCc3ccc(F)cc32)C[C@@H]1O (stereo partly drawn) [Compound 58]
Second: Cc1ccc2c(c1)[C@@]1(CCc3sc(C(=O)c4cncnc4N[C@@H]4C[C@H](COS(N)(=O)=O)[C@@H](O)C4)cc31)NCC2 [Compound 223]
The IC50 of the first is higher: > 0.2 µM for the first, 0.05 to 0.2 µM for the second.

`N#Cc1ccc2c(c1)C1(CCc3sc(C(=O)c4cncnc4N[C@@H]4C[C@H](COS(N)(=O)=O)[C@@H](O)C4)cc31)NCC2` (stereo partly drawn) [Compound 52] and `N#Cc1ccc2c(c1)C1(CCCc3sc(C(=O)c4cncnc4N[C@@H]4C[C@H](COS(N)(=O)=O)[C@@H](O)C4)cc31)NCC2` (stereo partly drawn) [Compound 10] fall in the same range of IC50: 0.05 to 0.2 µM for the first, 0.05 to 0.2 µM for the second.

First: NS(=O)(=O)OC[C@H]1C[C@@H](Nc2ncncc2C(=O)c2cc3c(s2)CCCC32OCCc3ccccc32)C[C@@H]1O (stereo partly drawn) [Compound 244]
Second: NS(=O)(=O)OC[C@H]1C[C@@H](Nc2ncncc2C(=O)c2cc3c(s2)CCC[C@]32NCCc3ccccc32)C[C@@H]1O [Compound 3]
The IC50 of the first is higher: > 0.2 µM for the first, ≤ 0.05 µM for the second. The second is the more potent here.

`NS(=O)(=O)OC[C@H]1C[C@@H](Nc2ncncc2C(=O)c2cc3c(s2)CN(C2CC2)CC32NCCc3ccc(Cl)cc32)C[C@@H]1O` (stereo partly drawn) [Compound 115] and `NS(=O)(=O)OC[C@H]1C[C@@H](Nc2ncncc2C(=O)c2cc3c(s2)CNC[C@]32NCCc3ccc(Cl)cc32)C[C@@H]1O` [Compound 120] cannot be ordered by IC50: ≤ 0.05 µM for the first, 0.05 to 0.2 µM for the second.

First: NS(=O)(=O)OC[C@H]1C[C@@H](Nc2ncncc2C(=O)c2nc3c(s2)CSC[C@]32NCCc3ccc(Cl)cc32)C[C@@H]1O [Compound 129]
Second: NS(=O)(=O)OC[C@H]1C[C@@H](Nc2ncncc2C(=O)c2nc3c(s2)CCC[C@]32NCCc3ccc(Cl)cc32)C[C@@H]1O [Compound 126]
The IC50 of the first is lower: 0.05 to 0.2 µM for the first, > 0.2 µM for the second. The first is the more potent here.

Going from `NS(=O)(=O)OC[C@H]1C[C@@H](Nc2ncncc2C(=O)c2cc3c(s2)C=CC32NCCc3ccc(Cl)cc32)C[C@@H]1O` (stereo partly drawn) [Compound 78] to `NS(=O)(=O)OC[C@H]1C[C@@H](Nc2ncncc2C(=O)c2cc3c(s2)CCCC32NC(=O)Cc3ccc(Cl)cc32)C[C@@H]1O` (stereo partly drawn) [Compound 163], the IC50 rises from ≤ 0.05 µM to > 0.2 µM. The first is the more potent here.

`NS(=O)(=O)OC[C@H]1C[C@@H](Nc2ncncc2C(=O)c2cc3c(s2)COC[C@@]32NCCc3c(F)cc(Cl)cc32)C[C@@H]1O` [Compound 110] and `NS(=O)(=O)OC[C@H]1C[C@@H](Nc2ncncc2C(=O)c2cc3c(s2)COC[C@@]32NCCc3c(Cl)cc(Cl)cc32)C[C@@H]1O` [Compound 101] cannot be ordered by IC50: > 0.2 µM for the first, > 0.2 µM for the second.

Compared with `NS(=O)(=O)OC[C@H]1C[C@@H](Nc2ncncc2C(=O)c2cc3c(s2)CSCC32NCCc3ncc(Cl)cc32)C[C@@H]1O` (stereo partly drawn) [Compound 148], `NS(=O)(=O)OC[C@H]1C[C@@H](Nc2ncncc2C(=O)c2cc3c(s2)CCC32NCCc3ccccc32)C[C@@H]1O` (stereo partly drawn) [Compound 43] is higher in IC50: 0.05 to 0.2 µM for the first, > 0.2 µM for the second. The first is the more potent here.

First: NS(=O)(=O)OC[C@H]1C[C@@H](Nc2ncncc2C(=O)c2nc3c(s2)CCC[C@]32NCCc3ccc(Cl)cc32)C[C@@H]1O [Compound 123]
Second: NS(=O)(=O)OC[C@H]1C[C@@H](Nc2ncncc2C(=O)c2nc3c(s2)COC[C@@]32NCCc3ccc(Cl)cc32)C[C@@H]1O [Compound 125]
The IC50 of the first is lower: 0.05 to 0.2 µM for the first, > 0.2 µM for the second.

Same assay, conditions: 6 h incubation, numeric values, read-out: SUMO IF IC50

First: NS(=O)(=O)OC[C@H]1C[C@@H](Nc2ncncc2C(=O)c2cc3c(s2)CN(CC(F)(F)F)C[C@@]32NCCc3ccc(Cl)cc32)C[C@@H]1O [Compound 188]
Second: C#CCN1Cc2sc(C(=O)c3cncnc3N[C@@H]3C[C@H](COS(N)(=O)=O)[C@@H](O)C3)cc2[C@]2(C1)NCCc1ccc(Cl)cc12 [Compound 195]
The IC50 of the first is higher: > 1 µM for the first, 0.0213 µM for the second. The second is the more potent here.

`NS(=O)(=O)OC[C@H]1C[C@@H](Nc2ncncc2C(=O)c2cc3c(s2)CC[C@@]32NCCc3ccccc32)C[C@@H]1O` [Compound 44] and `NS(=O)(=O)OC[C@H]1C[C@@H](Nc2ncncc2C(=O)c2cc3c(s2)CSC[C@@]32NCCc3ccc(Cl)cc32)C[C@@H]1O` [Compound 92] cannot be ordered by IC50: > 1 µM for the first, > 1 µM for the second.

For `C#CCN1Cc2sc(C(=O)c3cncnc3N[C@@H]3C[C@H](COS(N)(=O)=O)[C@@H](O)C3)cc2[C@@]2(C1)NCCc1ccc(Cl)cc12` [Compound 194], the IC50 was > 1 µM.
